# In patent US10758499B2, “Dermatitis treatment” (Avexxin AS, priority 2012, dated 2020):
# Key:
# group IVa PLA2 enzyme = molecular target: T1, group IVa PLA2 enzyme (Mus musculus, UniProt P47713); assay: PGE2 EIA analysis of ear tissue homogenates after treatment; format: in vivo, mice; details: treated versus paraffin placebo ear tissue, right ear biopsies
# T1 construct: the right ear biopsies were homogenized in 400 μl lysisbuffer; from tissue; host or cells: mouse ear tissue (in vivo treatment, ear biopsies homogenised)
# T1 sequence (P47713 1-748): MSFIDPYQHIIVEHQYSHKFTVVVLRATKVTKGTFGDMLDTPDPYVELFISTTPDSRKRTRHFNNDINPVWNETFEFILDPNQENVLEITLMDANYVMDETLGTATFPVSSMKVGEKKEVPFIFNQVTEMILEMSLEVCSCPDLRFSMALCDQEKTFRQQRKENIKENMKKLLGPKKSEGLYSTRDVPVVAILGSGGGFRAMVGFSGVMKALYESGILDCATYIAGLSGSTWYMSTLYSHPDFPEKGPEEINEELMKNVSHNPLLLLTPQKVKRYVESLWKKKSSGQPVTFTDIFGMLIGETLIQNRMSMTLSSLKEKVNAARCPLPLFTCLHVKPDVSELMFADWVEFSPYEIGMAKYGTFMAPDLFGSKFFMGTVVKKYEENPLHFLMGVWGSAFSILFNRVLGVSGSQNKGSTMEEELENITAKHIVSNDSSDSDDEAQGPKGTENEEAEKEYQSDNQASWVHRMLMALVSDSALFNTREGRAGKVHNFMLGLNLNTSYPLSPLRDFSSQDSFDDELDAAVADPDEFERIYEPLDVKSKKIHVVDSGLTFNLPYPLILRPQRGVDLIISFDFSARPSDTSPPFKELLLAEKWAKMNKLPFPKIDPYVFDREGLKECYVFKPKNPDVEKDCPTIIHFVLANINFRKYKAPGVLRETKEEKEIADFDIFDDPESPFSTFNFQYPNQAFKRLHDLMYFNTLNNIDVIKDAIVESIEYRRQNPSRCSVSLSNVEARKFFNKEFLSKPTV
# Procedure: Using a PreCellys homogenisator, the right ear biopsies were homogenized in 400 μl lysisbuffer containing 10 μM indomethasin. The lysate was stored at −80° C. until further processing. PGE2 EIA analysis ear homogenates was performed according to kit protocol (Cayman Chemicals). Plasma samples were diluted 1:60 and 1:180 in EIA buffer. The samples were hybridized over-night (18 hrs, 4° C.). The EIA plates were read using a Multiscan plate reader (Ascent Labsystems, OD550 nm). Ascent software for Multiscan, Version 2.4.1 was used to obtain the data. PGE2 results are shown as mean±SD relative to the paraffin-treated placebo mice (n=5 mice).
# Data of groups was examined by one-way analysis of variance, and individual groups were then compared with Dunnets test or Students t-test. Data was given as mean±SD, if not stated otherwise. Values of p<0.05 were considered significant.
# [1] = tested on: oxazolone-induced delayed-type-hypersensitivity (DTH) responses; assay: oxazolone-induced ear edema model (delayed-type-hypersensitivity) in mice, therapeutic topical treatment; format: in vivo, mice (female BALB/c); details: for Relative oxazolone specific ear swelling, average: topical 1 h and 7 h after challenge, 24 h after challenge, placebo 95%; for Absolute oxazolone specific ear swelling, average: topical on right ear 1 h and 7 h after challenge, measured 24 h after challenge, placebo 217 μm
# Procedure: DTH can be induced by skin sensitization with oxazolone, followed by a topical ear challenge with oxazolone 7 days later. This challenge results in development of an inflammatory response in the ear within 24 hours, which is dependent on antigen-specific T cells. The DTH reaction is associated with the recruitment of a variety of inflammatory cells and development of edema. The latter can be measured by quantifying changes in ear thickness before and after ear challenge. The oxazolone-induced ear edema model in mice is therefore a model of delayed contact hypersensitivity that permits the quantitative evaluation of the topical and systemic anti-inflammatory activity of a compound following topical administration. Female mice (6-8 wks—BALB/c) were acclimatization for 7 days in 12 hours light/12 hours dark cycle, at Temperature: 20-24° C., humidity: 55%±10%, on a standard laboratory mouse diet. Day 0: Mice were anesthetized by inhalation of 3-4% isoflurane in a 1:1 mixture of oxygen and medical air. The abdominal skin was shaved to enable topical application of 100 μl 1.5% (w/v) oxazolone in 100% acetone. Day 7: All ears were wiped with ethanol to optimize exposure to oxazolone. Subsequently, the right ear of the sensitized animals were challenged by topical administration of 20 μl (10 μl on each side of the ear) 2.5% (w/v) oxazolone in 100% ethanol. The left ears were treated with 20 μl 100% ethanol. Day 8: After 24 hours, mice were sacrificed and the right ears were collected to enable analysis by (immuno)-histochemistry and/or histology. The vehicle used to carry AVX001 was paraffin. The placebo was paraffin. Approx 20 μl (10 μl on each side of the right ear) of composition is applied to effect the test. 4 groups (8 mice per group) were studied. Group 1: Placebo, 1 hour and 7 hours after challenge Group 2: Compound 0.2 wt %, 1 hour and 7 hours after challenge Group 3: Compound 0.05 wt %, 1 hour and 7 hours after challenge Group 4: Compound 0.01 wt %, 1 hour and 7 hours after challenge Day 7: Ear thickness of both ears was measured directly before the ear-challenge (5 measurements per ear) using a Mitutoyo micrometer (accuracy 0.01 mm). Day 8: 24 Hours after challenge, thickness of left and right ears was measured again. The increase in ear thickness of each ear was calculated by subtracting the mean ear thickness measured on day 7 (before challenge) from the thickness on day 8 (24 hrs after challenge). To determine the oxazolone specific increase in ear thickness, the calculated increase in ear thickness of the left ear was subtracted from that of the right ear. Both absolute (Delta μm) and relative (%) increases in ear thickness were calculated. Increase in ear thickness (Delta μm): Thickness day 8 (μm)−Thickness day 7 (μm) Oxazolone specific increase (Delta μm): Increase right ear (Delta μm)−Increase left ear (Delta μm) Relative increase in ear thickness (%): (Increase in ear thickness (Delta μm)/Thickness day 7 (μm))*100% Relative oxazolone specific increase in ear thickness (%): Relative increase right ear (%)−Relative increase left ear (%) Data of groups was examined by one-way analysis of variance, and individual groups were then compared with Dunnets test or Students t-test. Data was given as mean±SD, if not stated otherwise. Values of p<0.05 were considered significant.
structure (smiles),measurement,setting,value
CC/C=C\C/C=C\C/C=C\C/C=C\CC/C=C/CSCC(=O)C(F)(F)F [AVX001],reduction in ear tissue PGE2 concentration,group IVa PLA2 enzyme,20%
same,"Relative oxazolone specific ear swelling, average",[1]; AVX001 0.01% in paraffin,58%
same,"Absolute oxazolone specific ear swelling, average",[1]; AVX001 0.01% in paraffin,134 μm
same,"Relative oxazolone specific ear swelling, average",[1]; AVX001 0.05% in paraffin,43%
same,"Absolute oxazolone specific ear swelling, average",[1]; AVX001 0.05% in paraffin,103 μm
same,"Relative oxazolone specific ear swelling, average",[1]; AVX001 0.2% in paraffin,42%
same,"Absolute oxazolone specific ear swelling, average",[1]; AVX001 0.2% in paraffin,94 μm
same,reduction of the oxazolone specific ear swelling (result in words),"[1]; all concentrations (0.01%, 0.05%, 0.2%), topical, versus placebo",statistically significant for all concentrations
